Here are results for nine compounds from patent US20110105397A1, “METHOD FOR TREATING HEART FAILURE WITH STRESSCOPIN-LIKE PEPTIDES” (priority 2009, published 2011).

Where a SMILES comes first, the peptide text is derived from it. Where no end group is shown, it is not given here. The star is where a group is joined. Succinimide(1-Et,3-yl) = CCN1C(=O)CC(*)C1=O

For this assay, the target named is T1, human CRHR2 (Homo sapiens, UniProt Q13324).
T1 construct: expressed in transfected cells
T1 sequence (Q13324 1-411): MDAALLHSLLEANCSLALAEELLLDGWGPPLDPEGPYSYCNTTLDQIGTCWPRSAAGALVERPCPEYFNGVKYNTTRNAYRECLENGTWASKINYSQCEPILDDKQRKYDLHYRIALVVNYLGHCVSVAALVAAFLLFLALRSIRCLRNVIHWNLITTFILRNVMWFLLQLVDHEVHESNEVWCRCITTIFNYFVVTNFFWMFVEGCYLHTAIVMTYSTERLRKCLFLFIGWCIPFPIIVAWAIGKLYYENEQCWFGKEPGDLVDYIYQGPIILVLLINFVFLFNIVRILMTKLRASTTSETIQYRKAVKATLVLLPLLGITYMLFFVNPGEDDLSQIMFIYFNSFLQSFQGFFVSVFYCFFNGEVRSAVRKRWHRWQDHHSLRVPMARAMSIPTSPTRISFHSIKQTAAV
Put plainly: cAMP assay, h-CRHR2 transfected SK-N-MC cells. Format: cell-based. As to conditions: Table 13; for EC50: cysteine mutation, N-ethylmaleimide capping, pegylation, read-out: pA50 (converted); for Log DR [M]: h-SCP control pA50 minus test compound pA50 within the same assay batch. Put shortly: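 SK-N-MC cells stably expressing human CRHR2 were treated with peptides (1 pM to 1 μM) for 60 min at 37 °C in IBMX-containing medium, with 10 μM forskolin as positive control. Cells were lysed with 0.5 M HCl and cAMP measured by [125I]-cAMP competition flash plate. A50 came from Hill-equation fits, normalised to h-SCP maximum.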
In general terms: Changes in cAMP serve as a functional read-out for many G protein-coupled receptors.

On to `CC[C@H](C)[C@H](NC(=O)[C@H](CCC(N)=O)NC(=O)[C@H](C)NC(=O)[C@H](CCSC)NC(=O)[C@H](CC(C)C)NC(=O)[C@H](Cc1c[nH]cn1)NC(=O)[C@H](C)NC(=O)[C@H](CC(N)=O)NC(=O)[C@H](C)NC(=O)[C@H](C)NC(=O)[C@H](C)NC(=O)[C@H](CCC(N)=O)NC(=O)[C@H](C)NC(=O)[C@H](CCCNC(=N)N)NC(=O)[C@H](CC(C)C)NC(=O)[C@H](CC(N)=O)NC(=O)[C@H](CCCCN)NC(=O)[C@H](C)NC(=O)[C@H](CCCCN)NC(=O)[C@H](C)NC(=O)[C@@H](NC(=O)[C@H](CC(N)=O)NC(=O)[C@H](Cc1ccccc1)NC(=O)[C@H](CSC1CC(=O)N(CC)C1=O)NC(=O)[C@H](CC(C)C)NC(=O)[C@H](CC(N)=O)NC(=O)[C@H](CCSC)NC(=O)[C@@H](NC(=O)[C@H](CC(N)=O)NC(=O)[C@@H](NC(=O)[C@@H]1CCCN1C(=O)[C@@H](NC(=O)[C@H](CC(=O)O)NC(=O)[C@H](CC(C)C)NC(=O)[C@H](CO)NC(=O)[C@H](CC(C)C)NC(=O)[C@@H](NC(=O)[C@H](Cc1ccccc1)NC(=O)[C@H](CCCCN)NC(=O)[C@@H](N)[C@@H](C)O)[C@@H](C)O)C(C)C)[C@@H](C)O)[C@@H](C)CC)[C@@H](C)CC)C(N)=O` (stereo partly drawn) [SEQ ID NO: 53, TKFTL SLDVP TNIMN LC(-NES)FNI AKAKN LRAQA AANAH LMAQI-NH2] (H-TKFTLSLDVPTNIMNLC(Succinimide(1-Et,3-yl))FNIAKAKNLRAQAAANAHLMAQI-NH2), for which the EC50 was around 56.2 nM and the “Log DR [M]” value is around 2.22.

As for “TKFTLSLDVPTNIMNLLFCIAKAKNLRAQAAANAHLMAQI-NH2 [SEQ ID NO: 20, TKFTLSLDVPTNIMNLLFCIAKAKNLRAQAAANAHLMAQI-NH2]”, the EC50 was 1 nM and the “Log DR [M]” value is 0.52.

Turning to “TKFTLSLDVPTNIMNLLFNIAKAKNCRAQAAANAHLMAQI-NH2 [SEQ ID NO: 27, TKFTLSLDVPTNIMNLLFNIAKAKNCRAQAAANAHLMAQI-NH2]”, the EC50 was 1.74 nM and the “Log DR [M]” value is 0.76.

“H-TKFTLSLDVPTNIMNLLFNIAKAKNLRAQAAANAHLMCQI-NH2 [SEQ ID NO: 39, TKFTLSLDVPTNIMNLLFNIAKAKNLRAQAAANAHLMCQI-NH2]”: the EC50 was 0.617 nM and the “Log DR [M]” value is 0.41.

Turning to “TKFTLSLDVPTNIMNCLFNIAKAKNLRAQAAANAHLMAQI-NH2 [SEQ ID NO: 17, TKFTLSLDVPTNIMNCLFNIAKAKNLRAQAAANAHLMAQI-NH2]”, the EC50 is 0.316 nM and the “Log DR [M]” value is listed as 0.02.

In the case of “TKFTLSLDVPTNIMNLCFNIAKAKNLRAQAAANAHLMAQI-NH2 [SEQ ID NO: 18, TKFTLSLDVPTNIMNLCFNIAKAKNLRAQAAANAHLMAQI-NH2]”, the EC50 is 3.89 nM and the “Log DR [M]” value amounted to 1.11.

“TCFTLSLDVPTNIMNLLFNIAKAKNLRAQAAANAHLMAQI-NH2 [SEQ ID NO: 3, TCFTLSLDVPTNIMNLLFNIAKAKNLRAQAAANAHLMAQI-NH2]”: the EC50 is 1.07 nM and the “Log DR [M]” value stood at 0.72.

As to “TKFTLSLDVPTNIMNLLFNIAKAKNLRACAAANAHLMAQI-NH2 [SEQ ID NO: 30, TKFTLSLDVPTNIMNLLFNIAKAKNLRACAAANAHLMAQI-NH2]”, the EC50 is 3.98 nM and the “Log DR [M]” value stood at 1.28.

As for “H-TKFTLSLDVPTNIMNLLFNIAKAKNLRAQACANAHLMAQI-NH2 [SEQ ID NO: 32, TKFTLSLDVPTNIMNLLFNIAKAKNLRAQACANAHLMAQI-NH2]”, the EC50 was 0.389 nM and the “Log DR [M]” value amounted to 0.11.
